TGI and GI50 data for eight molecules are collected here from PubChem BioAssay (NCI).

Each structure is given as a SMILES string. Where “and” joins values, the source holds several entries; their conditions need not be identical. Equal values may be shown once.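 Growth conditions: 96-well plates. Treatment: test compound, 48 hours, 5 concentrations. Analysis: linear interpolation between bracketing concentrations; unreached endpoints set to highest concentration. The concentration for 50% growth inhibition is given as GI50. The concentration for full growth arrest is given as TGI.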

Common to all, as to test: NCI tumour cell line growth inhibition, 48 h
Assay [1] relates to U251 CNS.
Assay [2] deals with SF-295 CNS.
In assay [3] the test system is MDA-MB-435.
Assay [4] has as its system MOLT-4 leukemia.
The test system of assay [5] is UO-31 renal.
Assay [6] has as its system RXF 393 renal.
The test system of assay [7] is SF-268 CNS.
The test system of assay [8] is OVCAR-4 ovarian.
The test system of assay [9] is SK-MEL-5 melanoma.
In assay [10] the test system is OVCAR-5 ovarian.

For the molecule `NC[C@H]1Nc2ccccc2[C@@H](O)C1O` (stereo not given in full), the TGI in assay [1], in [2], in [3], in assay [4], in assay [5] and in [6] was greater than 100 µM each time. The TGI in assay [7], in [8], in assay [9] and in assay [10] was greater than 100 µM each time.

With `COc1cc(Nc2nc3ccccc3nc2NS(=O)(=O)c2ccc(NC(=O)c3ccc(C)c(OC)c3)cc2)cc(OC)c1`, the GI50 in [1] was 3.71 µM and 12 µM and 2.27 µM; in [2], 2.03 µM and 8.73 µM and 1.08 µM; in assay [4], 4.58 µM and 14.4 µM and 2.25 µM; in assay [6] it was 2.8 µM and 7.57 µM and 1.06 µM; in assay [9] it was 4.19 µM and 11.4 µM and 1.71 µM. The TGI in assay [1] was 34.7 µM and 33.5 µM and > 10 µM; in assay [2] it was 9.85 µM and 33.6 µM and > 5.22 µM; in assay [3] it was > 100 µM and 86.2 µM and > 5.19 µM; in assay [4] it was 45.7 µM and 43.3 µM and > 10 µM; in assay [5], 9.07 µM and 46.1 µM and > 5.04 µM; in assay [6] it was 14.8 µM and 33.4 µM and > 6.13 µM. Also, the TGI in assay [7] was greater than 100 µM; in [8], greater than 100 µM; in [9] it was 38.4 µM and 28.7 µM and > 6.54 µM; in [10], greater than 100 µM.

Turning to `O=C1CC(=O)N(C(=O)c2nn(-c3ccc(Cl)cc3)cc2O)N1`, the GI50 in assay [1] is 0.147 µM; in [2], 0.17 µM; in [3], 0.355 µM; in assay [4], 0.403 µM; in assay [5], 0.529 µM; in assay [6] it was 0.191 µM. In addition, the GI50 in assay [7] was 0.461 µM; in assay [8], 1.51 µM; in [9], 1.69 µM; in assay [10], 4.17 µM. Further, the TGI is greater than 100 µM in [1]; greater than 100 µM in assay [2]; greater than 100 µM in assay [3]; greater than 41.7 µM in assay [4]; greater than 100 µM in assay [5]; greater than 47 µM in assay [6]. Also, the TGI in assay [7] is greater than 100 µM; in [8], greater than 100 µM; in [9], 12 µM; in [10] it was greater than 100 µM.

`COc1cc(N2CCC(N3CCN(C)CC3)CC2)ccc1Nc1ncnc(Nc2ccccc2S(=O)(=O)C(C)C)n1`: the GI50 is 4.34 µM in [1]; 4.55 µM in assay [2]; 2.6 µM in [3]; 5.07 µM in [4]; 2.62 µM in assay [5]; 3.42 µM in assay [6]. In addition, the GI50 was 4.39 µM in assay [7], 8.93 µM in assay [8], 4.62 µM in assay [9] and 2.06 µM in assay [10]. Further, the TGI was 19.1 µM in [1]; 24 µM in assay [2]; 10.2 µM in assay [3]; greater than 64.8 µM in assay [4]; 12.6 µM in [5]; 17.3 µM in assay [6]. Also, the TGI in [7] came to 28.7 µM; in assay [8] it was 42.2 µM; in [9], 18.1 µM; in assay [10] it was 12.8 µM.

With `c1ccc2c(NCCCCCCNc3c4ccccc4nc4ccccc34)c3ccccc3nc2c1`, the TGI in assay [1] came to 2.59 µM; in [2], 2.18 µM; in assay [3], 2.27 µM; in [4], 0.212 µM; in assay [5] it was 23.5 µM; in [6], 1.56 µM. Further, the TGI in assay [7] is 2.71 µM; in assay [8], 2.18 µM; in assay [9], 2.86 µM; in assay [10], 2.71 µM.

In the case of `N#Cc1ccc2c(c1)C(=O)c1c-2n(CCCCl)c(=O)c2cc([N+](=O)[O-])ccc12`, the GI50 in [1] is 1.63 µM; in assay [2], 4.21 µM; in assay [3] it was greater than 100 µM; in [4], 1.34 µM; in [5], 2.61 µM; in [6], 11.9 µM. For the same molecule, the GI50 in assay [7] is 1.49 µM; in assay [8], 60.8 µM; in [9], 5.07 µM; in assay [10], 65.4 µM. Moreover, the TGI was 16.4 µM in assay [1]; greater than 100 µM in [2]; greater than 100 µM in assay [3]; 5.26 µM in assay [4]; greater than 100 µM in [5]; 37.7 µM in assay [6]. The TGI was greater than 100 µM in assay [7], greater than 100 µM in assay [8], 71.5 µM in assay [9] and greater than 100 µM in [10].

As to `CC(=O)N1C/C(=C/c2ccc(Cl)cc2)C(=O)/C(=C/c2ccc(Cl)cc2)C1`, the GI50 in assay [1] is 0.337 µM; in [2] it was 1.08 µM; in [3] it was 0.43 µM; in assay [4] it was 0.249 µM; in [5] it was 0.887 µM; in assay [6], 0.546 µM. Moreover, the GI50 in [7] was 1.37 µM; in assay [8], 0.795 µM; in [9] it was 1.49 µM; in assay [10] it was 1.68 µM. In addition, the TGI was 1.18 µM in assay [1]; 3.02 µM in assay [2]; 1.82 µM in assay [3]; 7.58 µM in [4]; 2.35 µM in assay [5]; 1.61 µM in assay [6]. Further, the TGI in assay [7] is 4.02 µM; in [8], 3.22 µM; in assay [9], 2.9 µM; in assay [10], 3.45 µM.

With `C=C1C(=O)O[C@H]2[C@H]1CC/C(COC(=O)C(=O)c1cn(C)c3ccc(Cl)cc13)=C\CC[C@@]1(C)O[C@@H]21`, the GI50 was 1.79 µM in [1]; 2.88 µM in assay [2]; 1.27 µM in [3]; 0.494 µM in assay [4]; 0.817 µM in assay [5]; 1.06 µM in [6]. Also, the GI50 in assay [7] was 1.56 µM; in [8] it was 2.26 µM; in [9] it was 1.55 µM; in assay [10] it was 1.91 µM. Moreover, the TGI is 3.38 µM in [1]; 10.3 µM in assay [2]; 3.13 µM in assay [3]; 4.17 µM in assay [4]; 2.17 µM in [5]; 2.33 µM in assay [6]. The TGI in assay [7] is 4.56 µM; in [8], 12.4 µM; in [9], 2.91 µM; in [10], 5.82 µM.
